One data set has as its system Plasma. Kind of data set: Dose normalized fCmax in C57BL/6J mouse plasma at 10 mg/kg, po. It is filed as ADME, organism-based. Details: dose 10 mg/kg, route oral. To be noted: in vivo.
The next data set has as its system Brain. Kind of data set: Dose normalized fCmax in C57BL/6J mouse brain at 10 mg/kg, po. The conditions noted are these: in vivo. Details: dose 10 mg/kg, route oral. It is filed as ADME, organism-based.

Drawing on ChEMBL document CHEMBL2069186, “Getting the MAX out of Computational Models: The Prediction of Unbound-Brain and Unbound-Plasma Maximum Concentrations” (ACS Med Chem Lett, 2012), this text covers fCmax/dose for one compound.

Each structure is given as a SMILES string.

Consider `Nc1ncnc2c1c(COc1cccc(Cl)c1)nn2C1CCOCC1`, for which the fCmax/dose is recorded as 180 nM in the data set with Plasma and 88 nM with Brain.
